According to patent US11034725B2, “Compositions and methods for treating cardiovascular disease” (Genentech, Inc., priority 2016, dated 2021):
Where two headings read alike, the source gives them in different places. Numbered stars: 1 amine (or outer) side, 2 acyl side, 3 side chain; on linkers, the order of the positions; unused ones are H or OH. Bridge positions count the residues as written; N and C are the ends. Square brackets hold non-standard residues; d marks the D form. Peptide text beside a SMILES is read from it. * marks the point of attachment. Propanoyl(3-(3-pyridyl)) = O=C(CCc1cccnc1)*; Desaminohistidyl = O=C(CCc1c[nH]cn1)*; X21 = O=C([C@@H]1C[C@@H]1c1cccnc1)*; X44 = Cn1cc([C@H]2C[C@H]2C(=O)*)cn1; X5 = Cn1cc([C@@H]2C[C@H]2C(=O)*)cn1; X14 = O=C(CC1CCN([*:1])CC1)[*:2]; hArg = N=C(N)NCCCC[C@H](N)C(=O)O; X24 = CN1CCC(n2cc(C(=O)*)cn2)C1; X3 = O=C(CC1CCN(Cc2ccccn2)CC1)*; X13 = O=C(CCN1CCS(=O)(=O)CC1)*; X34 = NC(=O)N1CCN(CCC(=O)*)CC1; X6 = O=C(Cn1ccc(=O)[nH]c1=O)*; X8 = O=C(c1ccc(N2CCOCC2)nc1)*; X38 = O=C(CC1CCS(=O)(=O)C1)*; X19 = Cc1cc(C)n(CCC(=O)*)n1; X33 = CN1CCN(CCC(=O)*)CC1; X26 = O=C1CCCN1CCC(=O)*; X32 = O=C(CCN1CCOCC1)*; X23 = NC(=O)NCCC(=O)*; X41 = O=C(CCn1cncn1)*; Ms = CS(=O)(=O)*

Tests used:
[1] = target: T1, PCSK9Δhelix (Homo sapiens, UniProt Q8NBP7); assay: PCSK9Δhelix/Ab20 TR-FRET binding assay; details: TR-FRET, read-out: PCSK9Δhelix/Ab20 IC50
T1 construct: Human PCSK9 construct M1-Q692 with an engineered TEV site (residue deletion Y166, R167); made in house; host or cells: CHO
Description: The former was based on a TF-FRET assay to measure the association of the EGF(A) domain of the LDLR to PCSK9 (“PCSK9/EGF(A) binding assay”) whilst the latter was based on a TR-FRET assay to measure binding of Ab20 to PCSK9Δhelix (“PCSK9Δhelix/Ab20 binding assay”).
The ability of compounds to inhibit binding to PCSK9 was evaluated with a panel of time-resolved fluorescence resonance energy transfer (TR-FRET) binding assays. […] The PCSK9Δhelix/Ab20 binding assay evaluated the ability of compounds to compete with Ab20 for binding to the N-terminal groove region in a His-tagged, PCSK9Δhelix construct. […] Signal generation in the PCSK9 binding assays was dependent upon the binding interaction to bring into close proximity the His-tag on the PCSK9 and the Fc-tag on the ligand. Anti-His-APC was bound to the His-tag, and anti-Fc-europium was bound to the Fc-tag. When these two antibodies were in close proximity and were irradiated with light at 340 nm, the europium was excited and emitted energy at 615 nm. This energy was taken up by the APC and was emitted as light at 665 nm. Compounds that competed with the ligand reduced the energy transfer and thus the emission at 665 nm. In the His-EGFA-Fc molecule in the counterscreen, the two tags were always in close proximity, thus any reduction in emission at 665 nm was due to interference with the detection system.
Compounds were solubilized and dilutions were prepared in DMSO. […] The plate was centrifuged to mix the well contents and allowed to incubate for 30 min. […] The TR-FRET signal was read on a ViewLux reader (PerkinElmer) with excitation at 340 nm and emission at 615 and 665 nm with a 50-μs time delay between excitation and measurement of emission. The TR-FRET ratio was calculated as the fluorescence emission at 665 nm divided by the fluorescence emission at 615 nm. The normalized TR-FRET ratios were plotted as a function of the compound concentrations, and the IC50 values were determined using a 4-parameter logistic regression.
In black 1536-well assay plates (MaKO, Aurora® Microplates, Whitefish, Mont.), 40 nL of peptide in DMSO were preincubated with 2 μL His-tagged PCSK9 plus anti-His-allophycocyanin in assay buffer (50 mM Tris-HCl, pH 7.5, 150 mM NaCl, 2 mM CaCl2, 0.01% Tween®-20, 0.1% bovine gamma globulins, and protease inhibitor cocktail) for 30 min. Then 2 μL of Fc-tagged ligand and anti-Fc-europium in assay buffer were added and allowed to incubate for 2 h.

[2] = target: PCSK9 (Homo sapiens, UniProt Q8NBP7); assay: PCSK9/EGF(A) TR-FRET binding assay; details: TR-FRET; Table 8E, additional compounds; read-out: PCSK9/EGF(A) IC50
[3] = Table 8D, disulfide-cyclized extension peptides

Sequence of PCSK9 (Q8NBP7 153-692): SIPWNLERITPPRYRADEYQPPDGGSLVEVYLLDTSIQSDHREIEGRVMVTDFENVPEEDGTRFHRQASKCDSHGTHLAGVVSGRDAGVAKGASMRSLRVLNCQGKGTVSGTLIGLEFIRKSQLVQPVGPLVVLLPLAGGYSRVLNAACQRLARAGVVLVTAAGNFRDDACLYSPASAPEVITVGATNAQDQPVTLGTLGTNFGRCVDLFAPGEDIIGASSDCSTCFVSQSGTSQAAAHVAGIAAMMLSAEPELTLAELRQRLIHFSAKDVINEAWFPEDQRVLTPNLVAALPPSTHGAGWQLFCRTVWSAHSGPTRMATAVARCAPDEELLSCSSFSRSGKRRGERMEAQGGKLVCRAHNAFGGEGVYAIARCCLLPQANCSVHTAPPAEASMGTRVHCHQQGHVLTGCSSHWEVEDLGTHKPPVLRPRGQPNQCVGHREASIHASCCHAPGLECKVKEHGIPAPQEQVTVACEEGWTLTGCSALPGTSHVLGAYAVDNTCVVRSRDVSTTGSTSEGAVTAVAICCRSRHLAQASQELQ
Sequence of PCSK9 (Q8NBP7 31-152 partner limits assumed): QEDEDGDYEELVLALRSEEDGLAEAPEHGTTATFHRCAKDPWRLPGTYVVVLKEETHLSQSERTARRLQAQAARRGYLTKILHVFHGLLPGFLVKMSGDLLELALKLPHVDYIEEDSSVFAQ
T1 sequence (Q8NBP7 with tags, fused parts or gaps limits assumed): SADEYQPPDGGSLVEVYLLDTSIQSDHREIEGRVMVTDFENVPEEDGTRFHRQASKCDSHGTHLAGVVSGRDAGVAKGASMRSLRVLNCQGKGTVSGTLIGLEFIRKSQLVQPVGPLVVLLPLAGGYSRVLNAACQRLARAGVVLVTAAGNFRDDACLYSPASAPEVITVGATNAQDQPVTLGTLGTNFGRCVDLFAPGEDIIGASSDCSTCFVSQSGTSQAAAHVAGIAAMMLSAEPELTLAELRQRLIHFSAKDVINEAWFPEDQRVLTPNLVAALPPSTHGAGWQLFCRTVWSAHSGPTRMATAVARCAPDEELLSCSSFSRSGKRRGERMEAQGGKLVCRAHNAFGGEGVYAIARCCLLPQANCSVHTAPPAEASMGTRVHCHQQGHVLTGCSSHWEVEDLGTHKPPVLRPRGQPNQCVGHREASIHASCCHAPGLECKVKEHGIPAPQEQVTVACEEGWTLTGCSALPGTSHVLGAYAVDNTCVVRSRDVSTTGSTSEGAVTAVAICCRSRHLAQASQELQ
T1 sequence (Q8NBP7 31-152 partner limits assumed): as the sequence (Q8NBP7 31-152 partner limits assumed) above

Row | SMILES | IC50 [1, 3] [µM] | IC50 ([1]; Table 8E, additional compounds) [µM] | IC50 [2] [µM]
1 | CC[C@H](C)[C@@H]1NC(=O)[C@H](CCCNC(=N)N)NC(=O)[C@H](CCCCN)NC(=O)[C@H](CC(C)C)NC(=O)[C@H](CC(N)=O)NC(=O)[C@H](Cc2c[nH]c3ccccc23)NC(=O)[C@H](CC(C)C)NC(=O)[C@@H](NC(=O)[C@@H](N)Cc2c[nH]c3ccccc23)CSSC[C@@H](C(=O)N[C@@H](Cc2c[nH]c3ccccc23)C(=O)N[C@@H](Cc2ccccc2)C(=O)O)NC(=O)[C@H](CCC(N)=O)NC(=O)[C@H](CO)NC(=O)CNC1=O [Compound 66] (H-WCLWNLKRIGSQCWF-OH; disulfide 2-13) | 12 |  | 
2 | CC[C@H](C)[C@@H]1NC(=O)[C@H](CCCNC(=N)N)NC(=O)[C@H](CCCCN)NC(=O)[C@H](CC(C)C)NC(=O)[C@H](CC(N)=O)NC(=O)[C@H](Cc2c[nH]c3ccccc23)NC(=O)[C@H](CC(C)C)NC(=O)[C@@H](NC(=O)[C@H](Cc2c[nH]c3ccccc23)NC(C)=O)CSSC[C@@H](C(=O)N[C@@H](Cc2c[nH]c3ccccc23)C(=O)N[C@@H](Cc2ccccc2)C(=O)O)NC(=O)[C@H](CCC(N)=O)NC(=O)[C@H](CO)NC(=O)CNC1=O [Compound 90] (Ac-WCLWNLKRIGSQCWF-OH; disulfide 2-13) | 7.38 |  | 
3 | CC[C@H](C)[C@H](NC(=O)[C@H](CCCNC(=N)N)NC(=O)[C@@H](NC(=O)[C@H](CC(C)C)NC(=O)[C@H](CC(N)=O)NC(=O)[C@H](Cc1c[nH]c2ccccc12)NC(=O)CCN1CCS(=O)(=O)CC1)C(C)C)C(=O)NCC(=O)N[C@@H](CC(C)C)C(=O)N[C@@H](CC(C)C)C(=O)N[C@@H](CCCNC(=N)N)C(N)=O [Compound 126] (X13-WNLVRIGLLR-NH2) |  | 19 | ≥ 50
4 | CC[C@H](C)[C@H](NC(=O)[C@H](CCCNC(=N)N)NC(=O)[C@@H](NC(=O)[C@H](CC(C)C)NC(=O)[C@H](CC(N)=O)NC(=O)[C@H](Cc1c[nH]c2ccccc12)NC(=O)[C@@H]1C[C@H]1c1cnn(C)c1)C(C)C)C(=O)NCC(=O)N[C@@H](CC(C)C)C(=O)N[C@@H](CC(C)C)C(=O)N[C@@H](CCCNC(=N)N)C(N)=O [Compound 127] (X5-WNLVRIGLLR-NH2) |  | 29 | ≥ 50
5 | CC[C@H](C)[C@H](NC(=O)[C@H](CCCNC(=N)N)NC(=O)[C@@H](NC(=O)[C@H](CC(C)C)NC(=O)[C@H](CC(N)=O)NC(=O)[C@H](Cc1c[nH]c2ccccc12)NC(=O)CCN1CCCC1=O)C(C)C)C(=O)NCC(=O)N[C@@H](CC(C)C)C(=O)N[C@@H](CC(C)C)C(=O)N[C@@H](CCCNC(=N)N)C(N)=O [Compound 128] (X26-WNLVRIGLLR-NH2) |  | 7.5 | ≥ 50
6 | CC[C@H](C)[C@H](NC(=O)[C@H](CCCNC(=N)N)NC(=O)[C@@H](NC(=O)[C@H](CC(C)C)NC(=O)[C@H](CC(N)=O)NC(=O)[C@H](Cc1c[nH]c2ccccc12)NC(=O)c1cnn(C2CCN(C)C2)c1)C(C)C)C(=O)NCC(=O)N[C@@H](CC(C)C)C(=O)N[C@@H](CC(C)C)C(=O)N[C@@H](CCCNC(=N)N)C(N)=O (stereo partly drawn) [Compound 129] (X24-WNLVRIGLLR-NH2) |  | 23 | ≥ 50
7 | CC[C@H](C)[C@H](NC(=O)[C@H](CCCNC(=N)N)NC(=O)[C@@H](NC(=O)[C@H](CC(C)C)NC(=O)[C@H](CC(N)=O)NC(=O)[C@H](Cc1c[nH]c2ccccc12)NC(=O)CC1CCN(Cc2ccccn2)CC1)C(C)C)C(=O)NCC(=O)N[C@@H](CC(C)C)C(=O)N[C@@H](CC(C)C)C(=O)N[C@@H](CCCNC(=N)N)C(N)=O [Compound 130] (X3-WNLVRIGLLR-NH2) |  | 8.6 | ≥ 50
8 | CC[C@H](C)[C@H](NC(=O)[C@H](CCCNC(=N)N)NC(=O)[C@@H](NC(=O)[C@H](CC(C)C)NC(=O)[C@H](CC(N)=O)NC(=O)[C@H](Cc1c[nH]c2ccccc12)NC(=O)CCN1CCN(C(N)=O)CC1)C(C)C)C(=O)NCC(=O)N[C@@H](CC(C)C)C(=O)N[C@@H](CC(C)C)C(=O)N[C@@H](CCCNC(=N)N)C(N)=O [Compound 131] (X34-WNLVRIGLLR-NH2) |  | 6.7 | ≥ 50
9 | CC[C@H](C)[C@H](NC(=O)[C@H](CCCNC(=N)N)NC(=O)[C@@H](NC(=O)[C@H](CC(C)C)NC(=O)[C@H](CC(N)=O)NC(=O)[C@H](Cc1c[nH]c2ccccc12)NC(=O)CCc1c[nH]cn1)C(C)C)C(=O)NCC(=O)N[C@@H](CC(C)C)C(=O)N[C@@H](CC(C)C)C(=O)N[C@@H](CCCNC(=N)N)C(N)=O [Compound 132] (Desaminohistidyl-WNLVRIGLLR-NH2) |  | 9 | ≥ 50
10 | CC[C@H](C)[C@H](NC(=O)[C@H](CCCNC(=N)N)NC(=O)[C@@H](NC(=O)[C@H](CC(C)C)NC(=O)[C@H](CC(N)=O)NC(=O)[C@H](Cc1c[nH]c2ccccc12)NC(=O)CC1CCN(S(C)(=O)=O)CC1)C(C)C)C(=O)NCC(=O)N[C@@H](CC(C)C)C(=O)N[C@@H](CC(C)C)C(=O)N[C@@H](CCCNC(=N)N)C(N)=O [Compound 133] (Ms-[X14]WNLVRIGLLR-NH2) |  | 17 | ≥ 50
11 | CC[C@H](C)[C@H](NC(=O)[C@H](CCCNC(=N)N)NC(=O)[C@@H](NC(=O)[C@H](CC(C)C)NC(=O)[C@H](CC(N)=O)NC(=O)[C@H](Cc1c[nH]c2ccccc12)NC(=O)c1ccc(N2CCOCC2)nc1)C(C)C)C(=O)NCC(=O)N[C@@H](CC(C)C)C(=O)N[C@@H](CC(C)C)C(=O)N[C@@H](CCCNC(=N)N)C(N)=O [Compound 134] (X8-WNLVRIGLLR-NH2) |  | 4.2 | ≥ 50
12 | CC[C@H](C)[C@H](NC(=O)[C@H](CCCNC(=N)N)NC(=O)[C@@H](NC(=O)[C@H](CC(C)C)NC(=O)[C@H](CC(N)=O)NC(=O)[C@H](Cc1c[nH]c2ccccc12)NC(=O)[C@@H]1C[C@@H]1c1cnn(C)c1)C(C)C)C(=O)NCC(=O)N[C@@H](CC(C)C)C(=O)N[C@@H](CC(C)C)C(=O)N[C@@H](CCCNC(=N)N)C(N)=O [Compound 135] (X44-WNLVRIGLLR-NH2) |  | 10 | ≥ 50
13 | CC[C@H](C)[C@H](NC(=O)[C@H](CCCNC(=N)N)NC(=O)[C@@H](NC(=O)[C@H](CC(C)C)NC(=O)[C@H](CC(N)=O)NC(=O)[C@H](Cc1c[nH]c2ccccc12)NC(=O)CCn1nc(C)cc1C)C(C)C)C(=O)NCC(=O)N[C@@H](CC(C)C)C(=O)N[C@@H](CC(C)C)C(=O)N[C@@H](CCCNC(=N)N)C(N)=O [Compound 136] (X19-WNLVRIGLLR-NH2) |  | 9 | ≥ 50
14 | CC[C@H](C)[C@H](NC(=O)[C@H](CCCNC(=N)N)NC(=O)[C@@H](NC(=O)[C@H](CC(C)C)NC(=O)[C@H](CC(N)=O)NC(=O)[C@H](Cc1c[nH]c2ccccc12)NC(=O)CCN1CCOCC1)C(C)C)C(=O)NCC(=O)N[C@@H](CC(C)C)C(=O)N[C@@H](CC(C)C)C(=O)N[C@@H](CCCNC(=N)N)C(N)=O [Compound 137] (X32-WNLVRIGLLR-NH2) |  | 6.7 | ≥ 50
15 | CC[C@H](C)[C@H](NC(=O)[C@H](CCCNC(=N)N)NC(=O)[C@@H](NC(=O)[C@H](CC(C)C)NC(=O)[C@H](CC(N)=O)NC(=O)[C@H](Cc1c[nH]c2ccccc12)NC(=O)CCc1cccnc1)C(C)C)C(=O)NCC(=O)N[C@@H](CC(C)C)C(=O)N[C@@H](CC(C)C)C(=O)N[C@@H](CCCNC(=N)N)C(N)=O [Compound 138] ({Propanoyl(3-(3-pyridyl))}-WNLVRIGLLR-NH2) |  | 4.9 | 48
16 | CC[C@H](C)[C@H](NC(=O)[C@H](CCCNC(=N)N)NC(=O)[C@@H](NC(=O)[C@H](CC(C)C)NC(=O)[C@H](CC(N)=O)NC(=O)[C@H](Cc1c[nH]c2ccccc12)NC(=O)CC1CCS(=O)(=O)C1)C(C)C)C(=O)NCC(=O)N[C@@H](CC(C)C)C(=O)N[C@@H](CC(C)C)C(=O)N[C@@H](CCCNC(=N)N)C(N)=O (stereo partly drawn) [Compound 139] (X38-WNLVRIGLLR-NH2) |  | 19 | ≥ 50
17 | CC[C@H](C)[C@H](NC(=O)[C@H](CCCNC(=N)N)NC(=O)[C@@H](NC(=O)[C@H](CC(C)C)NC(=O)[C@H](CC(N)=O)NC(=O)[C@H](Cc1c[nH]c2ccccc12)NC(=O)CCN1CCN(C)CC1)C(C)C)C(=O)NCC(=O)N[C@@H](CC(C)C)C(=O)N[C@@H](CC(C)C)C(=O)N[C@@H](CCCNC(=N)N)C(N)=O [Compound 140] (X33-WNLVRIGLLR-NH2) |  | 26 | ≥ 50
18 | CC[C@H](C)[C@H](NC(=O)[C@H](CCCNC(=N)N)NC(=O)[C@@H](NC(=O)[C@H](CC(C)C)NC(=O)[C@H](CC(N)=O)NC(=O)[C@H](Cc1c[nH]c2ccccc12)NC(=O)CCNC(N)=O)C(C)C)C(=O)NCC(=O)N[C@@H](CC(C)C)C(=O)N[C@@H](CC(C)C)C(=O)N[C@@H](CCCNC(=N)N)C(N)=O [Compound 141] (X23-WNLVRIGLLR-NH2) |  | 36 | ≥ 50
19 | CC[C@H](C)[C@H](NC(=O)[C@H](CCCNC(=N)N)NC(=O)[C@@H](NC(=O)[C@H](CC(C)C)NC(=O)[C@H](CC(N)=O)NC(=O)[C@H](Cc1c[nH]c2ccccc12)NC(=O)CCn1cncn1)C(C)C)C(=O)NCC(=O)N[C@@H](CC(C)C)C(=O)N[C@@H](CC(C)C)C(=O)N[C@@H](CCCNC(=N)N)C(N)=O [Compound 142] (X41-WNLVRIGLLR-NH2) |  | 15 | ≥ 50
20 | CC[C@H](C)[C@H](NC(=O)[C@H](CCCNC(=N)N)NC(=O)[C@@H](NC(=O)[C@H](CC(C)C)NC(=O)[C@H](CC(N)=O)NC(=O)[C@H](Cc1c[nH]c2ccccc12)NC(=O)Cn1ccc(=O)[nH]c1=O)C(C)C)C(=O)NCC(=O)N[C@@H](CC(C)C)C(=O)N[C@@H](CC(C)C)C(=O)N[C@@H](CCCNC(=N)N)C(N)=O [Compound 143] (X6-WNLVRIGLLR-NH2) |  | 23 | ≥ 50
21 | CC[C@H](C)[C@H](NC(=O)[C@H](CCCCNC(=N)N)NC(=O)[C@@H](NC(=O)[C@H](CC(C)C)NC(=O)[C@H](CC(N)=O)NC(=O)[C@H](Cc1c[nH]c2ccccc12)NC(=O)[C@@H]1C[C@@H]1c1cccnc1)C(C)C)C(=O)NCC(=O)N[C@@H](CC(C)C)C(=O)N[C@@H](CC(C)C)C(=O)N[C@@H](CCCNC(=N)N)C(N)=O [Compound 221] (X21-WNLV[hArg]IGLLR-NH2) |  |  | 9.5
